Results reported in ChEMBL document CHEMBL1132130, “Synthesis of heterocyclic enol ethers and their use as group 2 metabotropic glutamate receptor antagonists” (Bioorg Med Chem Lett, 1999).
Active and inactive are the calls of the source. The calls are words filed in the database; no cut-off is given here.

Columns and labels:
[1] = target: Glutamate receptor ionotropic, NMDA 2C (Rattus norvegicus) (UniProt Q00961); assay: Compound was tested for inhibition of binding of [3H]-MK 801 to NMDA receptor in rat brain membranes up to 100 uM; IA means inactive; type: cell membranes
Glutamate receptor ionotropic, NMDA 2C (Rattus norvegicus), sequence (Q00961 20-1237 limits assumed): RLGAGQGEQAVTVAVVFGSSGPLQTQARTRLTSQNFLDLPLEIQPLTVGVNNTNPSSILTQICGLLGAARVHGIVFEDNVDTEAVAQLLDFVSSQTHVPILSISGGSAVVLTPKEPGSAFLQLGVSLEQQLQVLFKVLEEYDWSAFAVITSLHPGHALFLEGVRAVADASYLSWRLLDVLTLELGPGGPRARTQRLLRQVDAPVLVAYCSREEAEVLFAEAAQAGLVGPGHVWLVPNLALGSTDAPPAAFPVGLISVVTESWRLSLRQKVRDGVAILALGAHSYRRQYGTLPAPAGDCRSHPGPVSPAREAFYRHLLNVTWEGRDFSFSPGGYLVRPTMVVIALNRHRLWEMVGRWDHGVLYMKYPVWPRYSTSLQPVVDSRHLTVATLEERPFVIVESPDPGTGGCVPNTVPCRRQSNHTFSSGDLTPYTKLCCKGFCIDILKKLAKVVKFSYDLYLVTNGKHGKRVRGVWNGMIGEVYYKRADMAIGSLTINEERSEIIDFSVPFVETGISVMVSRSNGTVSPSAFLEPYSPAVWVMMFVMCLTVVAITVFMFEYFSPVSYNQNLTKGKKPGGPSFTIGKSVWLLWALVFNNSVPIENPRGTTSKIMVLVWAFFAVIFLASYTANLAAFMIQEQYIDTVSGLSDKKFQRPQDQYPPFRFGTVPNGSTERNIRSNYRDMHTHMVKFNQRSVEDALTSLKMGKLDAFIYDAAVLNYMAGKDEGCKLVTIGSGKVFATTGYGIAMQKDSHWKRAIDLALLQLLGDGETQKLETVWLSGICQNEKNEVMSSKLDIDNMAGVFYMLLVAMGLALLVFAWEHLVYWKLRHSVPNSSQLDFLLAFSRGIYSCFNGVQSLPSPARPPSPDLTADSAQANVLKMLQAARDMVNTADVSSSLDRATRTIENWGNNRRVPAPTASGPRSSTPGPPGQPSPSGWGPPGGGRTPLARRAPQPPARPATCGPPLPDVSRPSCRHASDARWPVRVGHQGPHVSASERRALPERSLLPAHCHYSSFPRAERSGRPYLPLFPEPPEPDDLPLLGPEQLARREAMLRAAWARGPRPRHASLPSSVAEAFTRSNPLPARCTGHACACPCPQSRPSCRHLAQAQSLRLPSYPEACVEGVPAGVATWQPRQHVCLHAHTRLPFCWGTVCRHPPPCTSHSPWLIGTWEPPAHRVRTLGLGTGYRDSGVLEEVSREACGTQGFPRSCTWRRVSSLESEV

[2] = target: Glutamate receptor ionotropic, kainate (Rattus norvegicus) (UniProt P22756+Q01812+P42260+P42264+Q63273); assay: Compound was tested for inhibition of binding of [3H]kainate to Ionotropic glutamate receptor kainate in rat brain membranes up to 100 uM; IA means inactive; type: cell membranes
[3] = target: T1, Metabotropic glutamate receptor 2 (Rattus norvegicus, UniProt P31421); assay: Inhibition of [3H]-DCG IV binding on rat mGluR2 transfected cell membranes from CHO cells
T1 sequence (P31421 whole entry): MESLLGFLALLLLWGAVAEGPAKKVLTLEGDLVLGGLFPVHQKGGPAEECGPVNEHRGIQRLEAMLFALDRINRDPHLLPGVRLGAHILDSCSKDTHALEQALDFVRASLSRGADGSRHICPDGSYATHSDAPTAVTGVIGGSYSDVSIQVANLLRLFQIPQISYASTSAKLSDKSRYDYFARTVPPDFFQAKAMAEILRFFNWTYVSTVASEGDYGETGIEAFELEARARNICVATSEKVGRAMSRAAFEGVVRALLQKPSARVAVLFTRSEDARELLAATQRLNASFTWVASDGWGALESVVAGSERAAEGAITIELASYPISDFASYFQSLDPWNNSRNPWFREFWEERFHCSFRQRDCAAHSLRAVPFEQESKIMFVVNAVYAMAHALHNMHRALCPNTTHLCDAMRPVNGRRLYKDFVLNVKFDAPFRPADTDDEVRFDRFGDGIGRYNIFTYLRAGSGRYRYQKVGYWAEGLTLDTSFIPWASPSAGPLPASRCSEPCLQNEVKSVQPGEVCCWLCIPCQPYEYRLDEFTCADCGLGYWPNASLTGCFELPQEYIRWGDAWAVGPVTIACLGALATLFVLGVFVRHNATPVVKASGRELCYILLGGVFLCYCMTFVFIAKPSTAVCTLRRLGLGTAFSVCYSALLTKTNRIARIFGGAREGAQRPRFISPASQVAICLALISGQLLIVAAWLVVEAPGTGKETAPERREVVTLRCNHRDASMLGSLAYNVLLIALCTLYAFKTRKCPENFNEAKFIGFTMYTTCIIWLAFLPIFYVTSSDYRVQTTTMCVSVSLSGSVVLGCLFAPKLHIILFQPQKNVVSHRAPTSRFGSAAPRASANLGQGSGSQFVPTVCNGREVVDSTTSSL

[4] = target: Metabotropic glutamate receptor 4 (Rattus norvegicus) (UniProt P31423); assay: Compound was tested for agonistic or antagonistic activity on rat mGluR4 using the GTP-gamma 35S binding model up to 100 uM; IA means devoid of activity
Metabotropic glutamate receptor 4 (Rattus norvegicus), sequence (P31423 whole entry): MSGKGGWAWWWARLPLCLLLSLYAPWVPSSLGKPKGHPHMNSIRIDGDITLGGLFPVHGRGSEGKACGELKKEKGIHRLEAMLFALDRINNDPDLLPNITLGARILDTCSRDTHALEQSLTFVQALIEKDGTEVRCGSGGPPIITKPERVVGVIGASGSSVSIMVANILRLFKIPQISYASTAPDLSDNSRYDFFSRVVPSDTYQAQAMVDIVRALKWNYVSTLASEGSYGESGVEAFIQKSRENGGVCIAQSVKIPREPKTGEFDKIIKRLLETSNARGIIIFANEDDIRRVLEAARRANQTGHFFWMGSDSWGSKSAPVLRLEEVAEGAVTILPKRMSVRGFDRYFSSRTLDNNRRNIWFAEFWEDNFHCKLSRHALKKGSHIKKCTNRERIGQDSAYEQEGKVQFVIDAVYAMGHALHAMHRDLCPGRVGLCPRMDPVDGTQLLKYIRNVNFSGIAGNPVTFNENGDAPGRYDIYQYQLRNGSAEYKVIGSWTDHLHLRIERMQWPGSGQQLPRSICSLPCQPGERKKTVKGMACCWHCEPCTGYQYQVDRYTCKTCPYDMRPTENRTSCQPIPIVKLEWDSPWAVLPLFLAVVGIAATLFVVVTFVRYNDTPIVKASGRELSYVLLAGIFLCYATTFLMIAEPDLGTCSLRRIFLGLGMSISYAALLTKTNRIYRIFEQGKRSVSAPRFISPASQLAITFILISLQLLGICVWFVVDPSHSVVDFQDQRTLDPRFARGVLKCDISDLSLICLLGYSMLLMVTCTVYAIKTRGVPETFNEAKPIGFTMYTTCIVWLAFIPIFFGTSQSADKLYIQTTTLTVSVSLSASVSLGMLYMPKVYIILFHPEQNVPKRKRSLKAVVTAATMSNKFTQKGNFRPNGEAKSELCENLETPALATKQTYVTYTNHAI

[5] = target: Glutamate receptor ionotropic, AMPA (Rattus norvegicus) (UniProt P19491+P19492+P19493+P19490); assay: Compound was tested for inhibition of binding of [3H]-Ro- 48-8587 to Ionotropic glutamate receptor AMPA in rat brain membranes up to 100 uM; IA means inactive; type: cell membranes
[6] = target: Metabotropic glutamate receptor 1 (Rattus norvegicus) (UniProt P23385); assay: Compound was tested for agonistic or antagonistic activity on rat mGluR1 using intracellular Ca 2+ measurement up to 100 uM; IA means devoid of activity; type: functional, cell-based
[7] = target: Metabotropic glutamate receptor 5 (Rattus norvegicus) (UniProt P31424); assay: Compound was tested for agonistic or antagonistic activity on rat mGluR5 using intracellular Ca 2+ measurement up to 100 uM; IA means devoid of activity; type: functional, cell-based
Metabotropic glutamate receptor 5 (Rattus norvegicus), sequence (P31424 21-1203 limits assumed): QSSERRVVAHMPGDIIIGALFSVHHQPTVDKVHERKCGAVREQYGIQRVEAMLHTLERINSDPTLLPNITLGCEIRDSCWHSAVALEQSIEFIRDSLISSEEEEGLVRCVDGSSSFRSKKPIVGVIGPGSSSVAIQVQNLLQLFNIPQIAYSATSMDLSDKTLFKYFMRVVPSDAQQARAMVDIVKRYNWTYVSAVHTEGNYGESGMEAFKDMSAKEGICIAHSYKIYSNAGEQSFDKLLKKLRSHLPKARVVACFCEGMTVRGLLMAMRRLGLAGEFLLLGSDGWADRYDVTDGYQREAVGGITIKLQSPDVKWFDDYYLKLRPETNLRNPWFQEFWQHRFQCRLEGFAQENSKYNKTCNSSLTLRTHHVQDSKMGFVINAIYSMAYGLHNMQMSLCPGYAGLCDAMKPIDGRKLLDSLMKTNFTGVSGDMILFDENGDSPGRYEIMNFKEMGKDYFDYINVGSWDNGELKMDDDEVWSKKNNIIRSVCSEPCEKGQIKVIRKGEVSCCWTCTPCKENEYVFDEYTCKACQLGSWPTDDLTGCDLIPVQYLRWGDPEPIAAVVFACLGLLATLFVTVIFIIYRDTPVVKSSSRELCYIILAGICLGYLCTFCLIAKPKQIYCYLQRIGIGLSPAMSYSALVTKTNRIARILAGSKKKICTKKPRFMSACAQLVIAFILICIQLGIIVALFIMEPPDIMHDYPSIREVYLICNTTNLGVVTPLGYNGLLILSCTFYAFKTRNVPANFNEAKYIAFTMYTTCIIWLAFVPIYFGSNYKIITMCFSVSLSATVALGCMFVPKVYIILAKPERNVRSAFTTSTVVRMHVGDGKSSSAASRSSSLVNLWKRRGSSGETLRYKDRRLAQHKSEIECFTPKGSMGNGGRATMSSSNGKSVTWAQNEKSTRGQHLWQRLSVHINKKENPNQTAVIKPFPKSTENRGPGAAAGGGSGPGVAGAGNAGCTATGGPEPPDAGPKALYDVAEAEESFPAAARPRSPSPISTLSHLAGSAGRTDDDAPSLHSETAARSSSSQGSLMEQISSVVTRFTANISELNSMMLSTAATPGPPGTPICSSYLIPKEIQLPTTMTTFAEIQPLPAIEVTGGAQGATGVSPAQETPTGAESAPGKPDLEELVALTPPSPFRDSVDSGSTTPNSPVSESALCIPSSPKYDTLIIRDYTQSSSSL

[8] = target: T1, Metabotropic glutamate receptor 2; assay: Inhibition of 10 uM 1S, 3R-ACPD stimulated GTP gamma 35S binding to rat mGluR2 expressed in CHO cells; type: cell-based
[9] = target: T1, Metabotropic glutamate receptor 2; assay: Inhibition of 1S, 3R-ACPD (10 uM)-stimulated GTP gamma 35S binding on rat mGluR2 transfected cell membranes from CHO cells

Row | Activity [1] | Activity [2] | IC50 [3] [nM] | Activity [4] | Activity [5] | Activity [6] | Activity [7] | IC50 [8] [nM] | IC50 [9] [nM] | SMILES
1 | inactive | inactive | 500 | inactive | inactive | inactive | inactive | 110 |  | Clc1cccc(Cl)c1/C(=C/n1cncn1)OC1CCCCCC1
2 |  |  |  |  |  |  |  |  | > 100000 | COc1ccc(/C(=C/n2cncn2)OC(C)C)c(OC)c1
